Consider five compounds from patent publication US20240174625A1, “COMPOSITIONS AND METHODS FOR TREATING TAUOPATHIES” (The Regents of the University of California, priority 2021, published 2024).

pEC50: −log10 of the molar value.

The target of this test is T1, NPEPPS (Homo sapiens, UniProt P55786).
T1 construct: endogenous in cells; host or cells: HEK293T
T1 sequence (P55786 whole entry): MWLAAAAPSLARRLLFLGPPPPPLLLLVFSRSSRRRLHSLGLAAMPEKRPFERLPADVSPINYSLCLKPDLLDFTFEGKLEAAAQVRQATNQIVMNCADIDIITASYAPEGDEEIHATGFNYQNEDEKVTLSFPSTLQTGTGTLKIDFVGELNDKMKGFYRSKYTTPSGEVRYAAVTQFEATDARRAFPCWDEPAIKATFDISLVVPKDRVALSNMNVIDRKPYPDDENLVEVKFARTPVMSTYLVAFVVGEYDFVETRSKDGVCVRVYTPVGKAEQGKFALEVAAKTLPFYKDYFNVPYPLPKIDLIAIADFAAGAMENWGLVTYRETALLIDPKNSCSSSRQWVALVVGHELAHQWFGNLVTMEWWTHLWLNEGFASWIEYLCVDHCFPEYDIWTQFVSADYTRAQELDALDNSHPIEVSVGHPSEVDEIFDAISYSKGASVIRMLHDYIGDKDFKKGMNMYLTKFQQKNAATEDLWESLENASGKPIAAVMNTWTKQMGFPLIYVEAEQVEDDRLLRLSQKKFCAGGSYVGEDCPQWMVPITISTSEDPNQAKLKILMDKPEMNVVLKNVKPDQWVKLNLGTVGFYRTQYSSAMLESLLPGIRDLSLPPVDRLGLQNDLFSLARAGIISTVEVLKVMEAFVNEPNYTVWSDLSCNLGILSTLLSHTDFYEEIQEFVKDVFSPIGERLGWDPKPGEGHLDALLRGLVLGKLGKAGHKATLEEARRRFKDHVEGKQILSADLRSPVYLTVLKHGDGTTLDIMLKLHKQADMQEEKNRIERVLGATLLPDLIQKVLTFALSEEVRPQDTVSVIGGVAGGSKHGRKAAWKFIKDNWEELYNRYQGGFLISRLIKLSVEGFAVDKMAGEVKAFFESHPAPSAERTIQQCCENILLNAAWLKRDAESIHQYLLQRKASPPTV
Kind of test: Cell-based NPEPPS activity assay (Q-AMC fluorescence). The following applies: log10 transformed; EC50 = concentration that elevates 50% NPEPPS activity (150% of DMSO baseline); HEK293T cells. The procedure, abridged:
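HEK293T cells (16,500/well) on poly-L-ornithine in minimal medium with compounds in 20-step 2-fold dilution for 24 h, then H-Gln-AMC added (30 μl of 200 μM). Fluorescence (ex/em 360/460 nm) read at addition and 3 h later; change in fluorescence taken as NPEPPS activity, giving EC50 versus DMSO control.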
Broadly, the pEC50 is −log10 of the EC50, conventionally taken in molar units. The low end stands for a high EC50, the high end for a low EC50. The compound `COc1ccc(CNc2nsc3ccccc23)cc1OC` [JMM001] gave a pEC50 of 4.80. Under `c1ccc2c(CNc3nsc4ccccc34)cccc2c1` [JMM013] stands 4.82; under `c1ccc2c(c1)-c1ccccc1C2Nc1nsc2ccccc12` [JMM052], 4.77. In the case of `CN(Cc1ccc(C(F)(F)F)cc1)c1nsc2ccccc12` [JMM067] it was 5.09; in that of `c1ccc(COc2ccc(CNc3nsc4ccc(OCc5ccccc5)cc34)cc2)cc1` [JMM083], 6.15.
